Laboratory results as given in article PMC6021111, “Murine leukemia virus p12 tethers the capsid-containing pre-integration complex to chromatin by binding directly to host nucleosomes in mitosis” (PLoS Pathogens, 2018).

Tests used:
[1] = system: GST-p12_M63I phosphorylation in 293T cells; test: Kinase inhibition, GST-p12_M63I phosphorylation (PQ/SR); type: cell-based
Description: (§1) Glycogen synthase kinase 3 (GSK3) and cyclin-dependent kinase 5 (CDK5) were predicted to phosphorylate Mo-MLV p12 on S61, by the NetPhos 3.1 kinase prediction algorithm. […] These drugs were tested in our biochemical assays for their ability to reduce GST-p12_M63I phosphorylation and chromatin association. In our assays, cells transiently-expressing GST-p12_M63I were cultured in media containing nocodazole overnight, prior to the addition of the kinase inhibitors. […] After removal of the drugs, cells were immediately washed and lysed for glutathione-sepharose bead pull-down assays. The eluates from the beads were analysed by SDS-PAGE followed by sequential staining with PQ and SR dyes to quantify the phosphorylation levels of GST-p12_M63I. LiCl treatment had little effect on GST-p12_M63I phosphorylation (Fig 7A, lane 2). […] To correlate GST-p12_M63I phosphorylation with its ability to interact with chromatin, we quantified the amounts of H2B in the pull-down eluates by immunoblotting. […] The short period of kinase inhibition used in our assays, may have limited the effects observed on GST-p12_M63I phosphorylation.
(§2) GST-p12 proteins were expressed in 293T cells from pCAGGS/GST-derived plasmids by transient transfection using Turbofect (Thermo Fisher Scientific). Approximately 24 h after transfection, cells were changed into fresh media containing either 400 ng/ml nocodazole (Sigma) or 2 μg/ml aphidicolin (Sigma) and incubated overnight at 37°C. The synchronisation of the cell cultures after drug treatment was assessed by propidium iodide staining and cell cycle phase analysis by flow cytometry. Cells to be used in pull down assays were washed and lysed in 20 mM Tris pH 8.0, 300 mM NaCl, 1 mM EDTA, 10% Glycerol, 1% Triton X-100, protease inhibitors (Roche), phosphatase inhibitors (Merck). Lysis was facilitated by passing the lysates through a 19-gauge needle x7 and sonication, x7 pulses, 30 s ON and 30 s OFF, in an ice bath (Decon FS100). […] ProQ diamond and Sypro ruby staining (Thermo Fisher Scientific) of gels was visualised and quantified on a ChemiDoc imaging system (Bio-Rad). […]

[2] = system: H2B precipitation with GST-p12_M63I, 293T cells; test: Kinase inhibition, H2B pull-down with GST-p12_M63I; type: cell-based; conditions: 3.5 h with nocodazole and 10 μM MG132, immunoblot
Description: as §1, §2

[3] = system: Glycogen synthase kinase 3 (GSK3); conditions: cited from earlier work
GST-p12_WT = test: SILAC-MS of proteins enriched with GST-p12_WT relative to GST; type: binding, Mo-MLV; conditions: for SDs from the mean: log2(GST-p12_WT, Heavy/GST, Light)
From the text: To test whether GST-p12 was acting like the p12 region of Gag, we used a global proteomic approach based on stable isotope labelling by amino acids in cell culture (SILAC)-mass spectrometry (MS) to look for host proteins that interact with GST-p12 [35, 36]. A schematic diagram of the workflow is illustrated in Fig 4A. Briefly, GST, GST-p12_mut14 and GST-p12_WT were transiently-expressed in 293T cells cultured in light (R0/K0), medium (R6/K4) and heavy (R10/K8) SILAC media, respectively. Next, lysates of nocodazole treated transfected cells were prepared, normalised and used for parallel pull-down assays with glutathione-sepharose beads. The eluates from the beads were then pooled in a 1:1:1 ratio and subjected to LC-MS/MS analysis. The experiment was performed using biological replicates to test reproducibility of the mass-spec hits. The pull-down assays for this experiment were performed using mitotic cell lysates to facilitate identification of any potential chromatin interactions that were previously missed.
After removal of obvious contaminants (e.g. keratin) and non-quantified hits, 948 and 879 proteins were identified in replicates 1 and 2 (R1 and R2) of the experiment respectively (the false discovery rate (FDR) was set at 5%). To select proteins enriched in the heavy-labelled (H) GST-p12_WT sample relative to the light-labelled (L) GST sample, we compared the log2(H/L) silac ratios of the mass-spectrometry hits. When plotted as a frequency distribution, the log2(H/L) ratios of each replicate fitted well to a normal distribution curve (R^2 ≥ 0.98), allowing the mean and standard deviation to be accurately estimated (Fig 4B). In this experiment, contaminants/non-specifically bound cellular proteins were assumed to cluster around the mean of the distribution. […] Twenty one such proteins were identified in R1 and 22 identified in R2 (Fig 4B Venn diagram). […] These proteins were then ranked based on normalised abundance in the group. In mass-spectrometry analysis, larger proteins are in general assigned higher scores. Therefore, to control for protein size, we divided the number of peptide spectral matches identified for each protein with its length and then normalised the values across the group (Fig 4C and 4D). When ranked this way, the clathrin heavy chain (CLTC), clathrin interactor 1 (CLINT1) and NEDD4-like E3 ubiquitin ligase (WWP2) were identified as the top three hits. […] The function of clathrin in MLV infection is unclear. […] Thus, clathrin binding may be relevant to the early stages of MLV replication and should be investigated further.
For SILAC-MS experiments, 293T cells were grown is media containing light (R0K0, ^12C-Arginine and ^12C-Lysine), medium (R6K4, ^13C-Arginine and Lysine-4,4,5,5-d4) or heavy (R10K8, ^13C+^15N-Arginine and ^13C+^15N-Lysine) versions of L-Arginine and L-Lysine amino acids (Pierce) for a minimum of 6 doublings before transient expression of GST-p12 proteins. After performing the glutathione-sepharose pull-down assays equivalent volumes of the beads eluates were pooled and submitted to the Bristol University Proteomics Facility for RP nano-LC-MS/MS analysis. This analysis was performed on an LTQ-Orbitrap Velos mass spectrometer in line with a Dionex Ultimate 3000 nanoHPLC system as described in [53].
Supplementary file ppat.1007117.s005.xlsx: S1 Table Results from the first SILAC-MS analysis. GST, Mo-MLV GST-p12_mut14 or GST-p12_WT were transiently-expressed in 293T cells cultured in light (R0/K0), medium (R6/K4) and heavy (R10/K8) SILAC media, respectively. Mitotic cell lysates were subsequently used for glutathione-sepharose bead pull-down assays. Bead eluates were pooled in a 1:1:1 ratio and then analysed by LC-MS/MS. […] (XLSX) Click here for additional data file.

[4] = system: nucleosome binding to immobilised p12 CTD peptides; test: BLI competition, nucleosome binding to immobilised p12 CTD peptides; conditions: soluble hCBS 100 μM
Description: To identify whether p12 binds to the same nucleosomal docking site as the CBS from PFV Gag, we then tested the ability of p12 CTD peptides to block the binding of nucleosomal arrays to hCBS and vice versa (Fig 9E and 9F).
The binding of PFV hCBS and p12 CTD peptides to recombinant H3.3 poly-nucleosomes (Active Motif) was measured using biolayer interferometry on an Octet RED system (Pall ForteBio Corp). The peptides were synthesised with a N-terminal biotin tag and GGGG linker. The Mo-MLV, FeLV and GaLV p12 CTD peptide sequences used are highlighted in bold in Fig 5C. A negative control was included that contained an R66A change in the Mo-MLV p12_M63I CTD peptide. Mo-MLV phos p12_M63I CTD was also synthesised with a phosphorylated S61 residue. The hCBS (positive control) sequence used corresponds to the CBS of PFV Gag ([…]). The biotinylated peptides were loaded onto streptavidin biosensors (Pall ForteBio Corp) at 0.5 μg/ml for 120 s in 10 mM HEPES pH 7.5, 150 mM NaCl, 0.005% (v/v) Tween 20. Following a buffer wash, the biosensors were incubated with serially-diluted nucleosome preparations (~0.5–250 nM) for 900–5400 s to measure association. Experiments were performed at 25°C and sample plates were agitated at 1000 rpm. Equilibrium binding amplitudes were determined by exponential least squares curve fitting of the association phase. The estimated binding amplitudes were then plotted against approximate nucleosome concentrations on GraphPad Prism 7. Equilibrium binding constant (Kd) and maximum specific binding (Bmax) were calculated by fitting the data to a non-linear regression model. Experiments were performed at least in duplicate and the data pooled for fitting. For competition assays, soluble non-biotin tagged peptides were added to the nucleosomal arrays at 100 μM to inhibit nucleosome binding prior to recording BLI measurements with biotinylated peptide immobilised on sensor probes. The non-biotin tagged peptide sequences were: hCBS—[…]; hCBS_L539A/R540A - […]; p12_WT—[…]; p12_R66A - […].

Compound	Normalised (PSMs/Length) (GST-p12_WT; Replicate 1)	PSMs (GST-p12_WT; Replicate 1)	PSMs/Length (GST-p12_WT; Replicate 1)	SDs from the mean (GST-p12_WT; Replicate 1)	Normalised (PSMs/Length) (GST-p12_WT; Replicate 2)	PSMs (GST-p12_WT; Replicate 2)	PSMs/Length (GST-p12_WT; Replicate 2)	SDs from the mean (GST-p12_WT; Replicate 2)	further results
[Cl-].[Li+] [LiCl]	–	–	–	–	–	–	–	–	effect on GST-p12_M63I phosphorylation ([1]; LiCl 40 mM, 3.5 h with nocodazole and 10 μM MG132): little effect; effect on chromatin pull down ([2]; LiCl 40 mM): no significant effect; inhibition of GSK3 [3]: shown to inhibit GSK3
CC[C@H](CO)Nc1nc(NCc2ccccc2)c2ncn(C(C)C)c2n1 [roscovitine]	–	–	–	–	–	–	–	–	reduction of GST-p12_M63I phosphorylation by kinase inhibitor ([1]; 3.5 h with nocodazole and 10 μM MG132, LiCl 40 mM, roscovitine 75 μM, kenpaullone 40 μM): ~ 1.5 fold; reduction of H2B precipitation by kinase inhibitor ([2]; roscovitine 75 μM, kenpaullone 40 μM): ~ 1.5 fold
Clathrin heavy chain 1: clathrin heavy chain, Q00610	49.383	90	0.05373	7.774	51.3165	96	0.05731	7.772	–
Inner centromere protein: cDNA FLJ31633, highly similar to this protein (fragment), B3KPD3	2.444	2	0.00266	6.525	1.191	1	0.00133	13.4521	–
NEDD4-like E3 ubiquitin-protein ligase WWP2: O00308	9.508	9	0.01034	–	9.262	9	0.01034	11.5377	–
NQGGYNLRPRTYQP [soluble hCBS, soluble non-biotin tagged hCBS peptide]	–	–	–	–	–	–	–	–	competition with binding of immobilised FeLV to nucleosomal arrays [4]: could compete with the binding; competition with binding of immobilised GaLV to nucleosomal arrays [4]: could compete with the binding; competition with binding of immobilised Mo-MLV p12_M63I to nucleosomal arrays [4]: could compete with the binding; competition with binding of immobilised Mo-MLV p12_WT to nucleosomal arrays [4]: could compete with the binding
Phosphatidylinositol-4-phosphate 3-kinase C2domain-containing alpha polypeptide: cDNA FLJ53905, highly similar to this protein, B4DG55	2.815	4	0.003063	–	6.17	9	0.006891	6.685	–
Protein transport protein Sec16A: F1T0I1	1.969	5	0.002142	3.112	1.918	5	0.002142	2.575	–
